The molecules below were run against T1, hNPY1R (Homo sapiens, UniProt P25929) (assay: NPY1R binding assay: SK-N-MC membranes, [125I]-Peptide YY (human) competition). Details: data obtained after 60 minutes at 37° C.; SK-N-MC membranes; [125I]-Peptide YY 0.05 nM; read-out: hNPY1R binding Ki* †.
T1 construct: SK-N-MC cells endogenously expressing the NPY1R receptor; endogenous in cells; host or cells: SK-N-MC cells (crude membrane fractions)
T1 sequence (P25929 1-384): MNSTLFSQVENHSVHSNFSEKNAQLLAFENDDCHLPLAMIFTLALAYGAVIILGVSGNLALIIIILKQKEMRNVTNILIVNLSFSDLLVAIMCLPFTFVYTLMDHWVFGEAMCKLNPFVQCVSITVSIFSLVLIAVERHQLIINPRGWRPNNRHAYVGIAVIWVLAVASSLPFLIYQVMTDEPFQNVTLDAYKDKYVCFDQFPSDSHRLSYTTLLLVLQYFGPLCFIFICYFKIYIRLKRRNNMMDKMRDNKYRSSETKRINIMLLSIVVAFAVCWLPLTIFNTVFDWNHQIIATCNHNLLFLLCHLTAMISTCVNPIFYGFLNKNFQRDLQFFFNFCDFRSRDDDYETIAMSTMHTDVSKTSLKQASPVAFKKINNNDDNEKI

SMILES	Ki [nM]
CCC(=O)NCCNC(=O)/N=C(/N)NCCC[C@@H](NC(=O)C(c1ccccc1)c1cccc(OCCOCCOCCOCCNC(=O)CN2CCN(CC(=O)O)CCN(CC(=O)O)CCN(CC(=O)O)CC2)c1)C(=O)NCc1ccc(O)cc1 (stereo partly drawn) [Compound 104, 2,2′,2″-(10-(14-(3-((4R,Z)-9-amino-4-((4-hydroxybenzyl)carbamoyl)-2,11,16-trioxo-1-phenyl-3,8,10,12,15-pentaazaoctadec-9-en-1-yl)phenoxy)-2-oxo-6,9,12-trioxa-3-azatetradecyl)-1,4,7,10-tetraazacyclododecane-1,4,7-triyl)triacetic acid]	< 10
N=C(N)NCCC[C@@H](NC(=O)C(c1ccccc1)c1cccc(OCCOCCOCCOCCOCCNC(=O)CN2CCN(CC(=O)O)CCN(CC(=O)O)CCN(CC(=O)O)CC2)c1)C(=O)NCc1ccc(CNC(N)=O)cc1 (stereo partly drawn) [Compound 113A, 2,2′,2″-(10-(17-(3-(2-(((R)-5-guanidino-1-oxo-1-((4-(ureidomethyl)benzyl)amino)pentan-2-yl)amino)-2-oxo-1-phenylethyl)phenoxy)-2-oxo-6,9,12,15-tetraoxa-3-azaheptadecyl)-1,4,7,10-tetraazacyclododecane-1,4,7-triyl)triacetic acid—2,2,2-trifluoroacetic acid (1/1)]	> 100

Results, then the molecule that gave them:

Ki [nM]	SMILES
< 10	CCC(=O)NCCNC(=O)/N=C(/N)NCCC[C@@H](NC(=O)C(c1ccccc1)c1cccc(OCCOCCOCCNC(=O)CN2CCN(CC(=O)O)CCN(CC(=O)O)CCN(CC(=O)O)CC2)c1)C(=O)NCc1ccc(O)cc1 (stereo partly drawn) [Compound 105, 2,2′,2″-(10-(2-((2-(2-(2-(3-((4R,Z)-9-amino-4-((4-hydroxybenzyl)carbamoyl)-2,11,16-trioxo-1-phenyl-3,8,10,12,15-pentaazaoctadec-9-en-1-yl)phenoxy)ethoxy)ethoxy)ethyl)amino)-2-oxoethyl)-1,4,7,10-tetraazacyclododecane-1,4,7-triyl)triacetic acid]
< 10	CCC(=O)NCCNC(=O)/N=C(/N)NCCC[C@@H](NC(=O)C(c1ccccc1)c1cccc(OCCOCCNC(=O)CN2CCN(CC(=O)O)CCN(CC(=O)O)CCN(CC(=O)O)CC2)c1)C(=O)NCc1ccc(O)cc1 (stereo partly drawn) [Compound 106, 2,2′,2″-(10-(2-((2-(2-(3-((4R,Z)-9-amino-4-((4-hydroxybenzyl)carbamoyl)-2,11,16-trioxo-1-phenyl-3,8,10,12,15-pentaazaoctadec-9-en-1-yl)phenoxy)ethoxy)ethyl)amino)-2-oxoethyl)-1,4,7,10-tetraazacyclododecane-1,4,7-triyl)triacetic acid]

Same assay, conditions: data obtained after 120 minutes at rt; SK-N-MC membranes; [125I]-Peptide YY; read-out: hNPY.R binding Ki* ††

SMILES	Ki [nM]
CCC(=O)NCCNC(=O)/N=C(/N)NCCC[C@@H](NC(=O)C(c1ccccc1)c1cccc(OCCCCNC(=O)CONC(=O)CCNC(=O)CN2CCN(CC(=O)O)CCN(CC(=O)O)CCN(CC(=O)O)CC2)c1)C(=O)NCc1c(F)cc(O)cc1F (single isomer, unassigned) [Compound 167]	< 10
CCC(=O)NCCNC(=O)/N=C(/N)NCCC[C@@H](NC(=O)C(c1ccccc1)c1cccc(OCCCCNC(=O)NCCONC(=O)CN2CCN(CC(=O)O)CCN(CC(=O)O)CCN(CC(=O)O)CC2)c1)C(=O)NCc1c(F)cc(O)cc1F (single isomer, unassigned) [Compound 168]	< 10
CCC(=O)NCCNC(=O)/N=C(/N)NCCC[C@@H](NC(=O)C(c1ccccc1)c1cccc(OCCCCNc2c(NCCONC(=O)CN3CCN(CC(=O)O)CCN(CC(=O)O)CCN(CC(=O)O)CC3)c(=O)c2=O)c1)C(=O)NCc1c(F)cc(O)cc1F (single isomer, unassigned) [Compound 169]	< 10
CCCCCCCCCCCCCCCC(=O)N[C@@H](CCC(=O)N[C@@H](CCCCNC(=O)CN1CCN(CC(=O)O)CCN(CC(=O)O)CCN(CC(=O)O)CC1)C(=O)NCCCCOc1cccc(C(C(=O)N[C@H](CCCN/C(N)=N\C(=O)NCCNC(=O)CC)C(=O)NCc2ccc(O)cc2)c2ccccc2)c1)C(=O)O (stereo partly drawn) [Compound 122, (2S)-4-{[(1S)-1-({4-[3-({[(1R)-4-{[(Z)-amino({[(2-propanamidoethyl)-carbamoyl]imino})methyl]amino}-1-{[(4-hydroxyphenyl)methyl]carbamoyl}butyl]-carbamoyl}(phenyl)methyl)phenoxy]butyl}carbamoyl)-5-{2-[4,7,10-tris(carboxymethyl)-1,4,7,10-tetraazacyclododecan-1-yl]acetamido}pentyl]carbamoyl}-2-hexadecanamidobutanoic acid]	< 10
CCC(=O)NCCNC(=O)/N=C(/N)NCCC[C@@H](NC(=O)C(c1ccccc1)c1cccc(OCCCCNC(=O)c2ccc(CNC(=O)CN3CCN(CC(=O)O)CCN(CC(=O)O)CCN(CC(=O)O)CC3)cc2)c1)C(=O)NCc1ccc(O)cc1 (stereo partly drawn) [Compound 123, 2,2′,2″-(10-(2-((4-((4-(3-((4R,Z)-9-amino-4-((4-hydroxybenzyl)carbamoyl)-2,11,16-trioxo-1-phenyl-3,8,10,12,15-pentaazaoctadec-9-en-1-yl)phenoxy)butyl)carbamoyl)benzyl)amino)-2-oxoethyl)-1,4,7,10-tetraazacyclododecane-1,4,7-triyl)triacetic acid]	< 10
CCC(=O)NCCNC(=O)/N=C(/N)NCCC[C@@H](NC(=O)C(c1ccccc1)c1cccc(OCCCCNC(=O)CCOCCOCCOCCOCCOCCOCCOCCOCCOCCOCCOCCOCCOCCOCCOCCOCCOCCOCCOCCOCCOCCOCCOCCOCCOCCOCCOCCOCCOCCOCCOCCOCCOCCOCCOCCOCCNC(=O)CN2CCN(CC(=O)O)CCN(CC(=O)O)CCN(CC(=O)O)CC2)c1)C(=O)NCc1ccc(O)cc1 (stereo partly shown) [Compound 126]	10 to 100
CCC(=O)NCCNC(=O)/N=C(/N)NCCC[C@@H](NC(=O)C(c1ccccc1)c1ccc(NCCCNC(=O)[C@H](N)CCCNC(=O)[C@@H](Cc2ccc(-c3ccccc3)cc2)NC(=O)CN2CCN(CC(=O)O)CCN(CC(=O)O)CCN(CC(=O)O)CC2)cc1)C(=O)NCc1ccc(O)cc1 (stereo partly drawn) [Compound 134B-In, indium (III) 2,2′,2″-(10-(2-(((R)-3-([1,1′-biphenyl]-4-yl)-1-(((R)-4-amino-5-((3-((4-((4R,Z)-9-amino-4-((4-hydroxybenzyl)carbamoyl)-2,11,16-trioxo-1-phenyl-3,8,10,12,15-pentaazaoctadec-9-en-1-yl)phenyl)amino)propyl)amino)-5-oxopentyl)amino)-1-oxopropan-2-yl)amino)-2-oxoethyl)-1,4,7,10-tetraazacyclododecane-1,4,7-triyl)triacetic acid]	< 10

Now from value to molecule:

Ki [nM]	SMILES
< 10	CCC(=O)NCCNC(=O)/N=C(/N)NCCC[C@@H](NC(=O)C(c1ccccc1)c1cccc(OCCCCNC(=O)[C@@H](CO)NC(=O)CCNC(=O)CN2CCN(CC(=O)O)CCN(CC(=O)O)CCN(CC(=O)O)CC2)c1)C(=O)NCc1c(F)cc(O)cc1F (single isomer, unassigned) [Compound 165B]
< 10	CCC(=O)NCCNC(=O)/N=C(/N)NCCC[C@@H](NC(=O)C(c1ccccc1)c1cccc(OCCCCNC(=O)NNC(=O)CCNC(=O)CN2CCN(CC(=O)O)CCN(CC(=O)O)CCN(CC(=O)O)CC2)c1)C(=O)NCc1c(F)cc(O)cc1F (single isomer, unassigned) [Compound 166]
< 10	CCC(=O)NCCNC(=O)/N=C(/N)NCCC[C@@H](NC(=O)C(c1ccccc1)c1cccc(OCCCCNc2c(NCCNC(=O)[C@@H](CN)NC(=O)CN3CCN(CC(=O)O)CCN(CC(=O)O)CCN(CC(=O)O)CC3)c(=O)c2=O)c1)C(=O)NCc1ccc(O)cc1 (stereo in doubt) [Compound 115B-In, Indium (III) 2,2′,2″-(10-(2-(((R)-3-amino-1-((2-((2-((4-(3-((R,Z)-9-amino-4-((4-hydroxybenzyl)carbamoyl)-2,11,16-trioxo-1-phenyl-3,8,10,12,15-pentaazaoctadec-9-en-1-yl)phenoxy)butyl)amino)-3,4-dioxocyclobut-1-en-1-yl)amino)ethyl)amino)-1-oxopropan-2-yl)amino)-2-oxoethyl)-1,4,7,10-tetraaza-cyclododecane-1,4,7-triyl)triacetate]
< 10	CCC(=O)NCCNC(=O)/N=C(/N)NCCC[C@@H](NC(=O)C(c1ccccc1)c1cccc(OCCCCNc2c(NCCNC(=O)[C@@H](CCCCN)NC(=O)CN3CCN(CC(=O)O)CCN(CC(=O)O)CCN(CC(=O)O)CC3)c(=O)c2=O)c1)C(=O)NCc1ccc(O)cc1 (stereo in doubt) [Compound 116B-In, indium (III) 2,2′,2″-(10-(2-((6-amino-1-((2-((2-((4-(3-((R,Z)-9-amino-4-((4-hydroxybenzyl)carbamoyl)-2,11,16-trioxo-1-phenyl-3,8,10,12,15-pentaazaoctadec-9-en-1-yl)phenoxy)butyl)amino)-3,4-dioxocyclobut-1-en-1-yl)amino)ethyl)amino)-1-oxohexan-2-yl)amino)-2-oxoethyl)-1,4,7,10-tetraazacyclododecane-1,4,7-triyl)triacetate]
10 to 100	N=C(N)NCCC[C@@H](NC(=O)[C@@H](c1ccccc1)c1cccc(OCCCCNC(=O)[C@H](N)CCCCNC(=O)CN2CCN(CC(=O)O)CCN(CC(=O)O)CCN(CC(=O)O)CC2)c1)C(=O)NCc1ccc(O)cc1 [Compound 138, 2,2′,2″-(10-(2-(((R)-5-amino-6-((4-(3-((S)-2-(((R)-5-guanidino-1-((4-hydroxybenzyl)amino)-1-oxopentan-2-yl)amino)-2-oxo-1-phenylethyl)phenoxy)butyl)amino)-6-oxohexyl)amino)-2-oxoethyl)-1,4,7,10-tetraazacyclododecane-1,4,7-triyl)triacetic acid]
